19 compounds from PubChem BioAssay (NCI) can be followed below.

What all share (assay): growth of human tumour cells (NCI), 48 h
Assay [1] relates to ACHN renal.
Assay [2] relates to BT-549 breast.
In assay [3] the test system is HCT-116 colon.
Assay [4] has as its system M14 melanoma.
In assay [5] the test system is RPMI-8226 leukemia.
Assay [6] deals with SF-295 CNS.
Assay [7] relates to SF-539 CNS.
Assay [8] deals with SK-MEL-2 melanoma.
In assay [9] the test system is SN12C renal.
The test system of assay [10] is SNB-19 CNS.
Assay [11] deals with UACC-62 melanoma.

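Assay format: 96-well plates, 48-hour exposure. TGI is the concentration that stops growth completely.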 Where only a bound is given, the exact number is not on record here.

As for `Cc1cc(S(=O)(=O)Nc2nncn2-c2ccc(Cl)cc2)c(S)cc1Cl`, the TGI in [1], in assay [2], in assay [3], in [4], in assay [5] and in assay [6] was over 10 µM in each case. Moreover, the TGI in assay [7], in [8], in assay [9], in [10] and in assay [11] was over 10 µM each time.

For `CN(CCCNC(=O)c1nn(C)c2c1Cc1ccccc1-2)CCCNC(=O)c1nn(C)c2c1Cc1ccccc1-2`, the TGI in [1] turned out to be 31 µM; in assay [2], 47.2 µM; in assay [3], 30.2 µM; in assay [4], 14.5 µM; in assay [5], 35.9 µM; in assay [6], 34.7 µM. Also, the TGI is 33.9 µM in [7]; 32 µM in assay [8]; 33.8 µM in assay [9]; 26.4 µM in [10]; 35.9 µM in [11].

`CC(C)(C)NC(=O)/C(=C\Sc1ccccc1)c1ccccc1`: the TGI in assay [1], in assay [2], in [3], in [4], in assay [5] and in assay [6] was over 100 µM throughout. The TGI in assay [7], in [8], in assay [9], in assay [10] and in assay [11] was over 100 µM each time.

With `COc1ccc(NC(C(N)=O)c2cc3cc(Br)ccc3nc2Cl)cc1` (centres undefined), the TGI in assay [1], in [2], in [3], in assay [4], in assay [5] and in assay [6] was over 100 µM each time. Further, the TGI in assay [7], in [8], in assay [9], in [10] and in assay [11] was over 100 µM in each case.

Consider `O=C(OC1CN2CCC1CC2)N(c1ccccc1)c1ccccc1` (centres undefined), for which the TGI in [1], in assay [2], in assay [3], in assay [4], in assay [5] and in assay [6] was over 100 µM in each case. In addition, the TGI in assay [7], in assay [8], in [9], in assay [10] and in [11] was over 100 µM each time.

Turning to `O=[N+]([O-])c1cc(F)ccc1S(=O)(=O)c1ccccc1`, the TGI in assay [1], in assay [2], in assay [3], in assay [4], in [5] and in assay [6] was over 10 µM each time. The TGI in [7], in [8], in assay [9], in assay [10] and in [11] was over 10 µM throughout.

For the compound `COC(=O)C1=C(O)CCCC(C2CCCCC(=O)C2C(=O)OC)=C1` (centres undefined), the TGI in assay [1], in [2], in assay [3], in assay [4], in assay [5] and in assay [6] was over 100 µM throughout. Further, the TGI was over 100 µM in [7]; over 100 µM in assay [8]; over 100 µM in [9]; over 100 µM in assay [10]; 42.3 µM in assay [11].

Turning to `C=CC(=O)N1C/C(=C\c2ccc([N+](=O)[O-])cc2)C(=O)/C(=C/c2ccc([N+](=O)[O-])cc2)C1`, the TGI in [1] was 0.33 µM; in [2], 0.567 µM; in assay [3], 0.115 µM; in assay [4] it was 0.41 µM; in [5], over 100 µM; in assay [6], 0.603 µM. Besides, the TGI was 0.151 µM in assay [7]; 1.8 µM in [8]; 0.772 µM in [9]; 3.08 µM in [10]; 0.688 µM in assay [11].

Regarding `COC1=C(C)C(=O)C2=C(C1=O)C1C3CC4=C(C(=O)C(OC)=C(C)C4=O)C(CNC(=O)C(C)O)N3C(C#N)C(C2)N1C` (centres undefined), the TGI is 0.359 µM in [1]; under 0.01 µM in [2]; 2.18 µM in assay [3]; 0.0173 µM in assay [4]; under 0.215 µM in assay [5]; 0.753 µM in assay [6]. For the same compound, the TGI is under 0.0117 µM in assay [7]; under 0.01 µM in assay [8]; 1.72 µM in assay [9]; 1.92 µM in [10]; under 0.01 µM in assay [11].

In the case of `CN(C)CCOc1ccc(-c2c(Oc3ccccc3)c(=O)oc3ccccc23)cc1`, the TGI in assay [1] was 24.4 µM; in [2], 26.6 µM; in assay [3], 15.5 µM; in [4], 4.63 µM; in assay [5], 40.8 µM; in assay [6] it was 17.2 µM. For the same compound, the TGI in assay [7] was 27.9 µM; in [8] it was 28.9 µM; in assay [9] it was 26.9 µM; in assay [10] it was 20.8 µM; in [11], 27.2 µM.

As for `O=c1[nH]c2nccn2c2c1SCCN2`, the TGI in assay [1], in assay [2], in assay [3], in [4], in assay [5] and in assay [6] was over 100 µM throughout. In addition, the TGI in assay [7], in assay [8], in assay [9], in assay [10] and in assay [11] was over 100 µM throughout.

As for `Nc1ccc2ccc(N3CCNCC3)nc2n1`, the TGI in assay [1], in [2], in assay [3], in assay [4], in assay [5] and in [6] was over 100 µM each time. Moreover, the TGI in assay [7], in assay [8], in assay [9], in assay [10] and in assay [11] was over 100 µM each time.

For the compound `O=C(c1cccs1)N1CCCN(C(=O)c2cccs2)C1=S`, the TGI in [1], in [2], in assay [3], in assay [4], in [5] and in assay [6] was over 100 µM in each case. Further, the TGI in [7], in assay [8], in assay [9], in [10] and in assay [11] was over 100 µM throughout.

As for `COc1ccc2c(c1)NC1(CCN(CCCC(=O)c3ccc(F)cc3)CC1)N=N2`, the TGI is over 100 µM in [1]; 74.7 µM in assay [2]; 36 µM in [3]; 26.6 µM in assay [4]; 42.2 µM in [5]; 46.3 µM in [6]. Further, the TGI in assay [7] is 35.9 µM; in assay [8], 39.8 µM; in assay [9] it was 64.4 µM; in assay [10], over 100 µM; in [11], 41.6 µM.

On to `COC(=O)c1ccccc1/C=C1\Cc2ccc3c(c2C1=O)CCCC3`, for which the TGI in assay [1], in [2], in [3], in assay [4], in assay [5] and in assay [6] was over 100 µM throughout. Also, the TGI in assay [7], in assay [8], in [9], in [10] and in assay [11] was over 100 µM each time.

For the compound `c1ccc(Nc2nn3c(CCCCCCCCc4nnc5sc(Nc6ccccc6)nn45)nnc3s2)cc1`, the TGI in assay [1] was over 100 µM; in assay [2] it was over 100 µM; in assay [3] it was over 100 µM; in assay [4] it was 35.2 µM; in [5], over 100 µM; in [6] it was 71.8 µM. The TGI in [7], in assay [8], in assay [9], in assay [10] and in assay [11] was over 100 µM each time.

Turning to `COc1ccc(-c2ncn(C[Si](C)(C)C)c2-c2ccc(OC)cc2)cc1`, the TGI was determined as 20.5 µM in assay [1]; 72.3 µM in [2]; 13 µM in assay [3]; 14.8 µM in assay [4]; 4.57 µM in assay [5]; 18.3 µM in assay [6]. In addition, the TGI in assay [7] was 27.5 µM; in assay [8], 20.5 µM; in assay [9] it was 24.3 µM; in assay [10], 26.2 µM; in assay [11], 10.2 µM.

As to `O=C(C/C(=N/O)C(F)(F)F)c1cccs1`, the TGI in assay [1], in assay [2], in assay [3], in [4], in [5] and in [6] was over 100 µM in each case. The TGI in assay [7], in [8], in assay [9], in [10] and in assay [11] was over 100 µM in each case.

Turning to `CN1Cc2cc(O)c(O)cc2C(O)C1` (centres undefined), the TGI in assay [1], in [2], in [3], in assay [4], in [5] and in assay [6] was over 100 µM in each case. Moreover, the TGI in [7], in assay [8], in assay [9], in assay [10] and in assay [11] was over 100 µM throughout.
